In PMC10182601, “Biological evaluation of novel gemcitabine analog in patient-derived xenograft models of pancreatic cancer” (BMC Cancer, 2023):
Counter-ions that a name gives are not always drawn.

Test system: PPCL-46 cells
Assay: Cell cycle distribution (PI, flow cytometry), PPCL-46
Format: cell-based, human
Settings: 24 h
Method: Cell cycle study was performed to determine the effect of 4NSG-SLN on the cell cycle; PPCL-192 and PPCL-46 cells (2 × 10^5 cells per well) were seeded in 6-well plates and cultured using DMEM medium supplemented with 10% FBS10 mM HEPES, 10% FBS, and 1% penicillin/streptomycin were seeded in 6-well plates and incubated at 37 °C. After the cells reached 75% confluence, they were exposed to different concentrations (5 μM,10 μM, and 20 µM) of GemHCl and 4NSG-SLN. After 24 h exposure, cells were harvested, washed with PBS, centrifuged at 300 × g for 5 min, resuspended the pellets in 100 μL of PBS, and passed through a 28 5/8 needle to disperse them into single cells. Fixation and permeation of cells were performed using cold 70% ethanol while vortexing. Cells were then stored at − 20 °C overnight. The cells were resuspended in 0.1 mg/mL RNase, stained with […] PI, and the phase distribution was examined using flow cytometry (FACScalibur-Becton Dickinson).

## Nc1ccn([C@@H]2O[C@H](CO)[C@@H](O)C2(F)F)c(=O)n1 [GemHCl, Gemcitabine hydrochloride]
PPCL-46, 5 μM
  %G1: 72.75%
  %G2: 12.56%
  %S: 14.69%
PPCL-46, 10 μM
  %G1: 74.08%
  %G2: 10.39%
  %S: 15.53%
PPCL-46, 20 μM
  %G1: 76.35%
  %G2: 9.54%
  %S: 14.11%
